Source: patent US12252493B2, “Imidazo[1,2-c]pyrimidine derivatives as PRC2 inhibitors for treating cancer” (Mirati Therapeutics, Inc., priority 2019, dated 2025)
Read-outs that look alike come from different tables or passages of the source.

Key:
[1] = target: purified human, His-tagged PRC2 complex (Homo sapiens (Human), UniProt O75530); assay: Hot Spot HMT assay of PRC2 enzymatic activity (tritiated methyl transfer from SAM to core histone); type: biochemical; conditions: 10 nM purified PRC2 complex, 0.05 mg/ml core histone H3, 1 uM 3H-SAM, 1 hr at 30° C.
Chain of purified human, His-tagged PRC2 complex (Q15910 whole entry): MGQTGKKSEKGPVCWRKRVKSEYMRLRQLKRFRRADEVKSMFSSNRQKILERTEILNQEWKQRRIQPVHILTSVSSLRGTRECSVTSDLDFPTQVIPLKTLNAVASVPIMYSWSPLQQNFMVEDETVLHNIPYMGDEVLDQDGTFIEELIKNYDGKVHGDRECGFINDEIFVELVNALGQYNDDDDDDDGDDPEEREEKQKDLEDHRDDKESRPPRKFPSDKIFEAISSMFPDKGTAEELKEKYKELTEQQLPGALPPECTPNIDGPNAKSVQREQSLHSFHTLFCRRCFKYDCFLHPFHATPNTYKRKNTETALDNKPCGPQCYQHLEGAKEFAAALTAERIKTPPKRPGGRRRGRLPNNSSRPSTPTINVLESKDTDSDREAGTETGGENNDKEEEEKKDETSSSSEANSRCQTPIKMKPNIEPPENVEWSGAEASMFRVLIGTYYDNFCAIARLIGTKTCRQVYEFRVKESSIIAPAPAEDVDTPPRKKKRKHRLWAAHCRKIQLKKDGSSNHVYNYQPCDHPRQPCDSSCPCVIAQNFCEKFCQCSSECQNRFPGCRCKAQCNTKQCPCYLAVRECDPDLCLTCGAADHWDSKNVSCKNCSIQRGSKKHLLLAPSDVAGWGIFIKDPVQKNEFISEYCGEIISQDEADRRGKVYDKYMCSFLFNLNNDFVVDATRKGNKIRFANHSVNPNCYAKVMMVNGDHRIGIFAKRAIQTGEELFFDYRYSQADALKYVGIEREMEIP
Chain of purified human, His-tagged PRC2 complex (O75530 whole entry): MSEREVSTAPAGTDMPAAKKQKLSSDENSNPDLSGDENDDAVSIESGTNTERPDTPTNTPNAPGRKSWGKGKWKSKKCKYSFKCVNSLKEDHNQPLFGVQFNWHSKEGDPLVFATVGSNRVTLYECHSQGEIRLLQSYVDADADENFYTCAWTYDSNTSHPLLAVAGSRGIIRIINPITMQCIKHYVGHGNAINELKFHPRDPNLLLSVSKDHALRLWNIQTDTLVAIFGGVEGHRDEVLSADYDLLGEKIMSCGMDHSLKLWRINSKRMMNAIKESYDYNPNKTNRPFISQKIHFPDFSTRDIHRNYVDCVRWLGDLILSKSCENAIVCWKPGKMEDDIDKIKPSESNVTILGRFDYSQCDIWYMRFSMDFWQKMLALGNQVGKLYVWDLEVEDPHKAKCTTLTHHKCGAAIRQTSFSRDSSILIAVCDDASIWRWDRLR
Chain of purified human, His-tagged PRC2 complex (Q15022 whole entry partner): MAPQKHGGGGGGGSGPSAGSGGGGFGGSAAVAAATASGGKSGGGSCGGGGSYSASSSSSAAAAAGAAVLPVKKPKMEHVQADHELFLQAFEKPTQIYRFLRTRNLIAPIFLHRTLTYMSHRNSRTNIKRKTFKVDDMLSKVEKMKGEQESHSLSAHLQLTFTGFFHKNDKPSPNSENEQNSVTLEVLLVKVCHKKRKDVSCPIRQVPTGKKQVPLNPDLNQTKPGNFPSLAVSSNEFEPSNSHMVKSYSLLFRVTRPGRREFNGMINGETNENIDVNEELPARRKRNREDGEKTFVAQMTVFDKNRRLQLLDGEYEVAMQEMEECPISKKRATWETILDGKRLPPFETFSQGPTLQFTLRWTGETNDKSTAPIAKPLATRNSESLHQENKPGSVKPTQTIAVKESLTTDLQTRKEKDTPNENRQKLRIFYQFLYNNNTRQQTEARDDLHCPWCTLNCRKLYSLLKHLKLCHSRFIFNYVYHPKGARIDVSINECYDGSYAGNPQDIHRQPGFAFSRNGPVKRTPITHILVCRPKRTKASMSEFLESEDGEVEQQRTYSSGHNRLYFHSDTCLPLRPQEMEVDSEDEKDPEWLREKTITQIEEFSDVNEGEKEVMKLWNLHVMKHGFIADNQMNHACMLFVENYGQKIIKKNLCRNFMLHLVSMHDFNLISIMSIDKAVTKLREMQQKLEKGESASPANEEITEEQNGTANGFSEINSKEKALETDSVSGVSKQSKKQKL
Chain of purified human, His-tagged PRC2 complex (Q6ZN18 whole entry partner): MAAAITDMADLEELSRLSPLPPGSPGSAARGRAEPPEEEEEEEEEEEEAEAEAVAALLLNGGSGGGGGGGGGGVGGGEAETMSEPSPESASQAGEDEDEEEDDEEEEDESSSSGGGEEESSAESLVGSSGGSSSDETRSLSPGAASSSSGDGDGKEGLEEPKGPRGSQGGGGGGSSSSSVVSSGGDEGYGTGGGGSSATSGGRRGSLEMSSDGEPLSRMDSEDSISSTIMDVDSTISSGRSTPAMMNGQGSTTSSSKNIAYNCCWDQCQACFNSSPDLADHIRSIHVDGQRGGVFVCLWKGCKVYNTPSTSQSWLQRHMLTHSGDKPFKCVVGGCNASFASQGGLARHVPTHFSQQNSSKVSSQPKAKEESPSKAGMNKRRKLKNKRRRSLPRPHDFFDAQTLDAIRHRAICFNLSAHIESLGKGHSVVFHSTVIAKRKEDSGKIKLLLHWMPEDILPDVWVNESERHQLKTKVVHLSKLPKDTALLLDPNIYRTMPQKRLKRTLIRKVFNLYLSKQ
Chain of purified human, His-tagged PRC2 complex (Q09028 whole entry partner): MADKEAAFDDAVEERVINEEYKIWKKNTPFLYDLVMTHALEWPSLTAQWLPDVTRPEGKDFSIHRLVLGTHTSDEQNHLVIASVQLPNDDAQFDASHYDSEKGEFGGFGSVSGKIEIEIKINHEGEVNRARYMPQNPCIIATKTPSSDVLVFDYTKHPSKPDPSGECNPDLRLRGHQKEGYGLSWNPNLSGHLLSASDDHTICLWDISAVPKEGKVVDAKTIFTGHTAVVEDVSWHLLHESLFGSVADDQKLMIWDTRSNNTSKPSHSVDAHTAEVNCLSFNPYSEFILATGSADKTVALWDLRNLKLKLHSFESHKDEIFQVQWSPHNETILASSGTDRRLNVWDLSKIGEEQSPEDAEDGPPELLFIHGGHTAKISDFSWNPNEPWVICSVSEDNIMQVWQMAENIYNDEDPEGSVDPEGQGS
Method: Ten-point dose-response curves for compounds of the present invention were determined using a Hot Spot HMT assay (Reaction Biology Corp; see Horiuchi et al., Assay Drug Dev Technol. (2013) 4: 227-236 doi: 10.1089/adt.2012.480). The assay uses purified human, His-tagged PRC2 complex, including N-terminal His-tagged EZH2 enzyme, N-terminal Flag-tagged embryonic ectoderm development protein (EED), N-terminal His-tagged suppressor of zeste 12 (SUZ12), N-terminal His-tagged AEBP2, and N-terminal His-tagged RbAp48. In this assay, the transfer of the tritiated methyl group from radiolabeled S-adenosyl methionine (SAM) to purified core histone protein by EZH2 is quantitated after filtration to determine the activity of the core PRC2 complex in the presence and absence of compound.
Briefly, compounds of the present invention were solubilized in DMSO and a series of 10, three-fold serial dilutions were made for each compound in 15% DMSO. The initial starting concentration for the serial dilutions of each compound was 1.0 μM. Control samples lacking compound, EZH2 enzyme or various reaction components also were prepared and processed in parallel with compound test samples. SAH (S-(5-adenosyl)-L-homocysteine) was used as a positive control for assay validation.
An aliquot of each serial dilution of test compound was added to deep 384 well plate using Acoustic Technology instrument (Echo 550, LabCyte) containing reaction buffer (50 mM Tris-HCl (pH 8.)), 0.01% Brij35, 1 mM EDTA, 1 mM DTT, 1 mM PMSF and 1% DMSO), 10 nM purified PRC2 complex and 0.05 mg/ml core histone H3 in a 5 μl volume. The reaction was mixed gently and then pre-incubated for 20 min at 30° C. The enzymatic reaction was initiated by adding 1 uM S-Adenosyl-L-[methyl ^3H]methionine and incubated for 1 hr at 30° C. After 1 hr, the reaction product was detected using a filter binding method and the amount of tritiated H3 core histone was quantitated using a scintillation counter. The IC50 value for each compound was determined from each 10-point dose-response curve using GraphPad Prism software and the results for exemplary compounds of Formula (I) are shown in Table 5. Key: A=≤250 nM; B=>250 nM—≤500 nM; and C=>500 nM—≤2 μM.

[2] = system: Karpas 422 cells expressing mutant EZH2 (Y641N); assay: Karpas 422 cell viability (Cell Titre Glo) assay; type: cell-based, human; conditions: Homo sapiens, CTG viability, time point (Day 4, Day 7 or Day 11) not given, read-out: IC50, Inhibiting Proliferation of Cells Expressing an Activating Mutant Form of EZH2
Method: Karpas 422 cell line is a human B cell non-Hodgkin's lymphoma cell line established from a patient having DLBCL. This EZH2 heterozygotic cell line expresses a mutant form of EZH2 enzyme (Y641N) that increases histone H3 methylation and this mutation has been implicated in the tumorgenesis of lymphomas, such as DLBCL.
Karpas 422 cells (PHE cat no., 06101702) were cultured in RPMI medium supplemented with 20% fetal bovine serum and 1% penicillin/1% streptomycin and plated at a density of 1000 cells/90 μl/well in 96 well white assay plates. A dose response curve for compounds of the present invention was determined by adding a 10 μl aliquot of stock solutions of varying concentrations of compounds to the same medium in each well, over a concentration range of 10 μM using 3-fold dilutions to a final concentration of 1.5 nM. The plates were incubated at 37° C. for predetermined time periods, Day 4, Day 7, or Day 11, and the viability of the cells was measured using a CTG assay kit (Cell Titre Glo; Promega cat. no G7573) on Day 4 and Day 7 in accordance with the manufacturer's instructions.
For the viability assay for the Day 11 plates, the plates were subjected to centrifugation at 1100 rpm for five minutes on Day 7 and the supernatant was removed by aspiration. The cells were resuspended in 90 μl aliquot of the appropriate growth medium lacking the compound followed by addition of 10 μl of a 10× stock of the same compound at the same concentration. The viability of the Day 11 cells was measured using the CTG assay kit described above in accordance with the manufacturer's instructions. The IC50 values for each compound at each predetermined time point were calculated using Graph pad PRISM software and the results are shown in Table 7. Key: A=≤250 nM; B=>250 nM-≤500 nM; C=>500 nM-≤5 μM and N.D.=not determined.

[3] = system: PRC2-mediated histone H3 methylation (H3 Lys27 trimethylation) in Pfeiffer cells expressing mutant EZH2 (A677G); assay: Tri-Methyl Histone H3 (Lys 27) sandwich ELISA in Pfeiffer cells; type: cell-based, human; conditions: Homo sapiens, read-out: IC50, Inhibition of EZH2-mediated Histone H3 Trimethylation
Excerpt: The Pfeiffer cell line was established from a […] from a patient having metastatic diffuse large B-cell lymphoma (DLBCL). This cell line expresses a mutant form of the EZH2 enzyme (A677G) that results in enhanced EZH2 activity leading to increased methylation of histone H3 Lys27. Increased trimethylation of histone H3 Lys27 is believed to be implicated in tumorgenesis and poor clinical prognosis in lymphomas (McCabe et al., (2012) Nature 492:108-112).
Inhibition of PRC2-mediated histone H3 methylation by compounds of Formula (I) was measured by ELISA using a Tri-Methyl Histone H3 (Lys 27) Sandwich ELISA Kit (Cell Signaling Tech #7866C) in accordance with the manufacturer's instructions. Briefly, Pfeiffer cells were cultured in RPMI medium supplemented with 10% fetal bovine serum and 1% penicillin and 1% streptomycin in 96 well culture plates at 37° C. to a density of 8000 cells/90 μl/well and the cells were harvested. A series of 3-fold serial dilutions of each test compound of Formula (I) were prepared in RPMI medium and added to the cells at final concentrations ranging from 1 μM to 0.15 nM. The plates were incubated at 37° C. for 96 hours.
After incubation, the cells were pelleted by centrifugation in a pre-cooled 4° C. rotor at 1,100 rpm for 10 min and the supernatant was removed by aspiration. The cell pellet was resuspended in 55 μl of Lysis Buffer (0.4M HCl) and incubated on ice with periodic shaking for 30 minutes. The lysed cells were subjected to centrifugation at 4,200 rpm for 10 min at 4° C. and the supernatant containing acid-soluble proteins was collected and the remainder discarded. The acid-soluble proteins were brought to a neutral pH by the addition of 20 μl of Neutralization Buffer (1 M Sodium phosphate, dibasic (pH 12.5), 2.5 mM DTT and 1 mM PMSF) and the neutralized lysates were analyzed by ELISA.
A 65 μl aliquot of each cell lysate was added to a well of a microwell strip, the microwells were sealed using tape and incubated either at 37° C. for two hours or at 4° C. overnight. After incubation, the tape was removed at the microwells were washed four times using 200 μl of 1× Wash Buffer. To each washed microwell, a 100 μl aliquot of an anti-trimethyl histone H3 Lys27 Detection Antibody solution was added and the microwells were incubated at 37° C. for one hour. The Detection Antibody solution was removed by aspiration and the wells were washed four times each using 200 μl of 1× Wash Buffer.
A 100 μl aliquot of an HRP-linked secondary antibody was added to each well, the wells were sealed with tape and incubated at 37° C. for 30 min. The HRP-linked secondary antibody solution was removed by aspiration and the wells were washed four times using 200 μl of 1× Wash Buffer. A 100 μl aliquot of a TMB substrate was added to each well, the wells were sealed with tape and incubated at 37° C. for 10 min or 25° C. for 30 min. The reaction was stopped by the addition of 100 μl aliquot of a STOP solution and the plate was shaken briefly. The degree of histone H3 trimethylation was determined using a spectrophotometric readout by measuring the absorbance at 450 nm and then calculating the amount of trimethylated histone H3. Key: A=≤250 nM; B=>250 nM-≤500 nM; and C=>500 nM-≤5 μM.

[4] = read-out: IC50, Inhibition of PRC2-mediated Enzymatic Activity

Row | SMILES | IC50 [2] | IC50 [1, 4] | IC50 ([3]; Pfeiffer cells, 96 hours incubation, ELISA) | IC50 ([1]; IC50, Inhibition of PRC2-mediated Enzymatic Activity) | IC50 ([3]; Pfeiffer, 96 h)
1 | Cc1cc(-c2cnc(NCc3c(F)ccc4c3CCO4)n3cc(CNCCS(=O)(=O)F)nc23)n(C)n1 [Example 27, 2-(((8-(1,3-dimethyl-1H-pyrazol-5-yl)-5-(((5-fluoro-2,3-dihydrobenzofuran-4-yl)methyl)amino)imidazo[1,2-c]pyrimidin-2-yl)methyl)amino)ethane-1-sulfonyl fluoride] | 500 to 5000 nM |  |  | 500 to 2000 nM | 500 to 5000 nM
2 | Cc1cc(-c2cnc(NCc3c(F)ccc4c3CCO4)n3cc(-c4nn[nH]n4)nc23)n(C)n1 [Example 43, 8-(1,3-dimethyl-1H-pyrazol-5-yl)-N-((5-fluoro-2,3-dihydrobenzofuran-4-yl)methyl)-2-(2H-tetrazol-5-yl)imidazo[1,2-c]pyrimidin-5-amine] |  | < 250 nM |  |  | 
3 | Cn1nccc1-c1cnc(NCc2c(F)ccc3c2CCO3)n2cc(CO)nc12 [Example 6, (5-(((5-fluoro-2,3-dihydrobenzofuran-4-yl)methyl)amino)-8-(1-methyl-1H-pyrazol-5-yl)imidazo[1,2-c]pyrimidin-2-yl)methanol] |  | 250 to 500 nM | < 250 nM |  | 
4 | Cc1cc(-c2cnc(NCc3c(F)ccc4c3CCO4)n3cc(C(O)c4ccccc4)nc23)n(C)n1 (centres unmarked) [Example 8] |  | 250 to 500 nM |  |  | 
5 | CNCc1cn2c(NCc3c(F)ccc4c3CCO4)ncc(-c3cc(C)nn3C)c2n1 [Example 25, 8-(1,3-dimethyl-1H-pyrazol-5-yl)-N-((5-fluoro-2,3-dihydrobenzofuran-4-yl)methyl)-2-((methylamino)methyl)imidazo[1,2-c]pyrimidin-5-amine] | 250 to 500 nM | 250 to 500 nM |  |  | 
6 | Cc1cc(-c2cnc(NCc3c(F)ccc4c3CCO4)n3cc(C(N)C(F)(F)F)nc23)n(C)n1 (centres unmarked) [Example 42, 2-(1-amino-2,2,2-trifluoroethyl)-8-(1,3-dimethyl-1H-pyrazol-5-yl)-N-((5-fluoro-2,3-dihydrobenzofuran-4-yl)methyl)imidazo[1,2-c]pyrimidin-5-amine] |  | 250 to 500 nM |  |  | 
7 | OCc1cn2c(NCc3c(F)ccc4c3CCO4)ncc(-c3ccc(C4CC4)nc3)c2n1 [Example 4, (8-(6-cyclopropylpyridin-3-yl)-5-(((5-fluoro-2,3-dihydrobenzofuran-4-yl)methyl)amino)imidazo[1,2-c]pyrimidin-2-yl)methanol] | 500 to 5000 nM | 500 to 2000 nM |  |  | 
8 | NCc1cn2c(NCc3c(F)ccc4c3CCO4)ncc(-c3cccc(F)c3)c2n1 [Example 14, 2-(aminomethyl)-N-((5-fluoro-2,3-dihydrobenzofuran-4-yl)methyl)-8-(3-fluorophenyl)imidazo[1,2-c]pyrimidin-5-amine] | 500 to 5000 nM | 250 to 500 nM |  |  | 
9 | Cc1cc(-c2cnc(NCc3c(F)ccc4c3CCO4)n3cc(CN(C)C)nc23)n(C)n1 [Example 26, 8-(1,3-dimethyl-1H-pyrazol-5-yl)-2-((dimethylamino)methyl)-N-((5-fluoro-2,3-dihydrobenzofuran-4-yl)methyl)imidazo[1,2-c]pyrimidin-5-amine] |  | 500 to 2000 nM |  |  | 

The next lines start with results.

Row | IC50 [2] | IC50 [1, 4] | IC50 ([3]; Pfeiffer cells, 96 hours incubation, ELISA) | SMILES | IC50 ([1]; IC50, Inhibition of PRC2-mediated Enzymatic Activity) | IC50 ([3]; Pfeiffer, 96 h)
10 | 500 to 5000 nM | 500 to 2000 nM |  | Cc1ncccc1-c1cnc(NCc2c(F)ccc3c2CCO3)n2cc(CO)nc12 [Example 3, (5-(((5-fluoro-2,3-dihydrobenzofuran-4-yl)methyl)amino)-8-(2-methylpyridin-3-yl)imidazo[1,2-c]pyrimidin-2-yl)methanol] |  | 
11 | 250 to 500 nM | 500 to 2000 nM |  | COc1ccc(-c2cnc(NCc3c(F)ccc4c3CCO4)n3cc(CO)nc23)c(C)n1 [Example 5, (5-(((5-fluoro-2,3-dihydrobenzofuran-4-yl)methyl)amino)-8-(6-methoxy-2-methylpyridin-3-yl)imidazo[1,2-c]pyrimidin-2-yl)methanol] |  | 
12 | 500 to 5000 nM | < 250 nM |  | Cc1cc(S(C)(=O)=O)ccc1-c1cnc(NCc2c(F)ccc3c2CCO3)n2cc(CO)nc12 [Example 2, (5-(((5-fluoro-2,3-dihydrobenzofuran-4-yl)methyl)amino)-8-(2-methyl-4-(methylsulfonyl)phenyl)imidazo[1,2-c]pyrimidin-2-yl)methanol] |  | 
13 | < 250 nM | < 250 nM |  | Cc1cc(-c2cnc(NCc3c(F)ccc4c3CCO4)n3cc(CO)nc23)n(C)n1 [Example 1, (8-(1,3-dimethyl-1H-pyrazol-5-yl)-5-(((5-fluoro-2,3-dihydrobenzofuran-4-yl)methyl)amino)imidazo[1,2-c]pyrimidin-2-yl)methanol] |  | 
